Source: patent US8722890B2 (AbbVie Inc., priority 2008, dated 2014)
Read-outs that look alike come from different tables or passages of the source.

Legend:
[1] = target: Aurora C (Homo sapiens (Human), UniProt Q9UQB9); experiment: Aurora C activity assay (time-resolved fluorescence); type: biochemical; conditions: Table 5; read-out: Aurora C HTRF IC50
Method: To determine Aurora A and C activity of representative compounds of the invention, Active Aurora A or C enzyme was incubated in wells of a 384 well plate with biotinylated STK substrate-2 (Upstate), 1 mM ATP, and various concentrations of inhibitors in a Hepes buffer, pH 7.4 containing MgCl2, sodium othrovanadate, and Triton X-100. After 1 hour, the reaction was stopped with EDTA and anti-phospho-STK antibody Europium Cryptate (Upstate) and SA-XL665 (Upstate) were added to detect the phosphopeptide. The amount of phosphorylation was determined by the time-resolved fluorescence ratio of signals at 665 nm and 615 nm. The IC50s were calculated by an exponential fit of the inhibition values with the inhibitor concentrations using Assay Explorer software.

[2] = target: Aurora B (Homo sapiens (Human), UniProt Q96GD4); experiment: Aurora B activity assay (time-resolved fluorescence); type: biochemical; conditions: Table 3; 1 mM ATP
Method: After 1 hour, the reaction was stopped with EDTA and anti-phospho-histone H3 Europium Cryptate (Cis-Bio) and SA-APC (Phycolink, Prozyme) were added to detect the phosphopeptide. The amount of phosphorylation was determined by the time-resolved fluorescence ratio of signals at 665 nm and 615 nm. The IC50's were calculated by an exponential fit of the inhibition values with the inhibitor concentrations using Assay Explorer software.

[3] = target: cKIT (Homo sapiens (Human), UniProt P10721); experiment: HTRF in vitro kinase assay, cKIT; type: biochemical; conditions: PDGFR family; 1 mM ATP
Method: (§1) To determine the activity of the various kinases, a homogenous time-resolved fluorescence (HTRF) in vitro kinase assay was used.
(§2) For example for KDR, cKIT, FLT1, CSF1R and FTL3, purified enzyme was mixed with 0.5 μM N-biotinylated substrate (Biotin-Ahx-[…]-amide (SEQ. ID. 1)), various concentrations of inhibitor in reaction buffer (50 mM HEPES, pH 7.1, 10 mM MgCl2, 2 mM MnCl2, 0.1% BSA and 1 mM DTT, 40 μL final volume), ATP (1 mM final conc.) in a black 384-well plate. […] The quenched reaction was allowed to stand at room temperature for 3 hours and was then read in a time-resolved fluorescence detector (InVision, Perkin-Elmer) at 620 nm and 665 nm sequentially with excitation.

[4] = target: KDR (Homo sapiens (Human), UniProt P35968); experiment: HTRF in vitro kinase assay, KDR; type: biochemical; conditions: VEGFR family; 1 mM ATP
Method: as §1, §2

[5] = target: CYP 3A4 (Homo sapiens (Human), UniProt P08684); experiment: CYP 3A4 Assay (pooled human liver microsomes, midazolam)
Method: Assays (200 μL final volume) were carried out in NUNC polypropylene deep well plates in 50 mM potassium phosphate buffer, pH 7.4, using a microtiter plate shaker in a 37° C. incubator. […] A constant amount of dimethylsulfoxide (1%) was added to the incubations with the test compounds, and each analysis was performed in duplicate. For preincubation experiments (Pre), the microsomes, test compounds, and NADPH were mixed and incubated 30 minutes before addition of midazolam. For coincubation experiments (Co), the compounds, microsomes, and midazolam were mixed and the reaction initiated by addition of NADPH to the wells. In both protocols, the complete reaction was terminated after 10 minutes of shaking by addition of 100 μL of a 1/1 mixture of acetonitrile and methanol containing 0.33 μM 1-hydroxytriazolam.
For analysis, an aliquot of each well were transferred to an autosampler vial and 10 μL injected onto a Shimadzu LC-10A HPLC system equipped with a YMC-AQ (2.0×50 mm) column. The components were separated using a gradient of 10% acetonitrile −0.1% acetic acid to 70% acetonitrile −0.1% acetic acid at a flow rate of at 0.4 mL/minute over 5 minutes.

Sequence of Aurora B (Q96GD4 whole entry): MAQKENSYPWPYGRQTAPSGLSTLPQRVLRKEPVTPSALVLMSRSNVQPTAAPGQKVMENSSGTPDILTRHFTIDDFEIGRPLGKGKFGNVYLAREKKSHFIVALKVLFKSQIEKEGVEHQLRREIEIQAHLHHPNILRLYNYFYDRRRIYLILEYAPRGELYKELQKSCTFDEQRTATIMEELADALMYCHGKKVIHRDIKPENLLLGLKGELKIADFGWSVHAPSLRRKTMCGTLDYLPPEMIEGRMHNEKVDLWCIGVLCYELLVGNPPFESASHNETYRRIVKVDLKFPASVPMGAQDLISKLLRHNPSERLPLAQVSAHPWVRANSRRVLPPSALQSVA
Sequence of Aurora B (Q9NQS7 826-918 partner): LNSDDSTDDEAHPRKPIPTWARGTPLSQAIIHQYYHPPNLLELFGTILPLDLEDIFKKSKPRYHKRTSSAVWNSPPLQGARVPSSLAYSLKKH
Sequence of cKIT (P10721 544-976): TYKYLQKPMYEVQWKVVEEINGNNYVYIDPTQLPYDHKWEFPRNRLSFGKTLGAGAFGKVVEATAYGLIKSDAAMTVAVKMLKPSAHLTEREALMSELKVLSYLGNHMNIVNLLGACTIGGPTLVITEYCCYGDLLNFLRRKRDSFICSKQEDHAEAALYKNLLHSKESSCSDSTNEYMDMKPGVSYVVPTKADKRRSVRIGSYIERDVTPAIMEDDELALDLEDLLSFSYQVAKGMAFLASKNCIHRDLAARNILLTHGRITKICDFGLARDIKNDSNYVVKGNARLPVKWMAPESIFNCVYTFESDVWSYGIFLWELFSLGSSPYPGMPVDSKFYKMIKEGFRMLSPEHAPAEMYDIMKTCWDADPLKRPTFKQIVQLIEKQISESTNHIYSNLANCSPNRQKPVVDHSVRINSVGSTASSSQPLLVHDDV
Sequence of CYP 3A4 (P08684 whole entry): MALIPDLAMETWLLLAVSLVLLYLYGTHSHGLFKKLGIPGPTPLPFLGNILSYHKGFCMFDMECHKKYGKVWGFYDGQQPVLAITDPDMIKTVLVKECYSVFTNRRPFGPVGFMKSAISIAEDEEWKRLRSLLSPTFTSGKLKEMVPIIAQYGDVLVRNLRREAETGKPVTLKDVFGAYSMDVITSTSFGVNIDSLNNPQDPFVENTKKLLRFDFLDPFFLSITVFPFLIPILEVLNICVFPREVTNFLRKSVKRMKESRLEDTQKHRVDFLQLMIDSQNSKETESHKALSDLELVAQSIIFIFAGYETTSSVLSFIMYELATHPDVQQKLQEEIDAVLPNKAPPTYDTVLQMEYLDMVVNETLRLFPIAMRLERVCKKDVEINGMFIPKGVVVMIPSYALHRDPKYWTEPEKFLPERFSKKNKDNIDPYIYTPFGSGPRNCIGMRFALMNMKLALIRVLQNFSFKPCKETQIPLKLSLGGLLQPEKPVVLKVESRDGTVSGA
Sequence of Aurora C (Q9UQB9 whole entry): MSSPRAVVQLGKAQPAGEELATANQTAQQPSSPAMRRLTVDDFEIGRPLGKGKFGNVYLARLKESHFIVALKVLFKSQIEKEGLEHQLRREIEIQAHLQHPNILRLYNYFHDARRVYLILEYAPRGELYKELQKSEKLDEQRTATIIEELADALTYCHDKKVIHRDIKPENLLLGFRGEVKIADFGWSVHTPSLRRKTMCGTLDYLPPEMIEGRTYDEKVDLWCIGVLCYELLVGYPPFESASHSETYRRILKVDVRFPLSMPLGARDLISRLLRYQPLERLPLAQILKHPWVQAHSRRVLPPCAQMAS
Sequence of KDR (P35968 789-1354): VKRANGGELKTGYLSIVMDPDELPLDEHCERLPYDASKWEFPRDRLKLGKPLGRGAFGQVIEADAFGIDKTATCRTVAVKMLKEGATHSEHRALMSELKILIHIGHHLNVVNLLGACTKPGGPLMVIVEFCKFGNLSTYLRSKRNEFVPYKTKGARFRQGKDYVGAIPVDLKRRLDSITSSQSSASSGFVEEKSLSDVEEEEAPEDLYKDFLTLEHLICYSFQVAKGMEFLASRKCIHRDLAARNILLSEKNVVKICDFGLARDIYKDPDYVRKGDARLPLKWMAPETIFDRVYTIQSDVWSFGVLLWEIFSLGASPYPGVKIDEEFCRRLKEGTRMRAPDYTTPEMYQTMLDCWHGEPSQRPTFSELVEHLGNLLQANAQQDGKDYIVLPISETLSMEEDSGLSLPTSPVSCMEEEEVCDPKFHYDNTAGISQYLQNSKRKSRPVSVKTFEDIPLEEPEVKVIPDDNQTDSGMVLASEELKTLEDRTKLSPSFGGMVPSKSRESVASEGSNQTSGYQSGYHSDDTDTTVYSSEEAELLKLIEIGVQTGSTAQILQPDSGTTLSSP

Structure (SMILES)	IC50 [2]	IC50 [3]	also measured
Nc1ncc(-c2cnn(CCO)c2)c2scc(-c3ccc(NC(=O)Nc4cccc(F)c4)cc3)c12 [Example 1, N-(4-{4-amino-7-[1-(2-hydroxyethyl)-1H-pyrazol-4-yl]thieno[3,2-c]pyridin-3-yl}phenyl)-N′-(3-fluorophenyl)urea]			IC50 [1]: 0.001 µM
Nc1ncc(-c2cnn(CCO)c2)c2scc(-c3ccc(NC(=O)Nc4ccc(OC(F)F)cc4)cc3)c12 [Example 2, N-(4-{4-amino-7-[1-(2-hydroxyethyl)-1H-pyrazol-4-yl]thieno[3,2-c]pyridin-3-yl}phenyl)-N′-[4-(difluoromethoxy)phenyl]urea]	0.00787 µM	0.0273 µM	
Cc1cccc(NC(=O)Nc2ccc(-c3csc4c(-c5cnn(C[C@H](C)O)c5)cnc(N)c34)cc2)c1 [Example 3, N-[4-(4-amino-7-{1-[(2S)-2-hydroxypropyl]-1H-pyrazol-4-yl}thieno[3,2-c]pyridin-3-yl)phenyl]-N′-(3-methylphenyl)urea]	0.0112 µM		
COc1ccc(NC(=O)Nc2ccc(-c3csc4c(-c5cnn(CC(C)(C)O)c5)cnc(N)c34)cc2)cc1 [Example 4, N-(4-{4-amino-7-[1-(2-hydroxy-2-methylpropyl)-1H-pyrazol-4-yl]thieno[3,2-c]pyridin-3-yl}phenyl)-N′-(4-methoxyphenyl)urea]	0.0148 µM		IC50 [4]: 0.00501 µM; IC50 ([5]; read-out: CYP 3A4 IC50, coincubation (Co), Co: reaction initiated by addition of NADPH, 2 μM midazolam): > 10 µM; IC50 ([5]; read-out: CYP 3A4 IC50, preincubation (Pre), Pre: microsomes, compound, NADPH incubated 30 minutes before midazolam): > 10 µM
COc1ccc(NC(=O)Nc2ccc(-c3csc4c(-c5cnn(C[C@H](O)CO)c5)cnc(N)c34)cc2)cc1 [Example 5, N-[4-(4-amino-7-{1-[(2S)-2,3-dihydroxypropyl]-1H-pyrazol-4-yl}thieno[3,2-c]pyridin-3-yl)phenyl]-N′-(4-methoxyphenyl)urea]		0.0126 µM	
Cc1cccc(NC(=O)Nc2ccc(-c3csc4c(-c5cn[nH]c5)cnc(N)c34)cc2)c1 [Example 6, N-{4-[4-amino-7-(1H-pyrazol-4-yl)thieno[3,2-c]pyridin-3-yl]phenyl}-N′-(3-methylphenyl)urea, reference compound]	0.00844 µM		
